Source: BindingDB's records for doi:10.1124/jpet.102.046318 (Georgetown University, 2003)
pKi: −log10 of the molar value.

How the values were obtained:
[1] = target: Norepinephrine transporter (Rattus norvegicus, UniProt Q9JIA2)
[2] = target: Sodium-dependent serotonin transporter (Rattus norvegicus, UniProt P31652)
[3] = target: Sodium-dependent dopamine transporter (Rattus norvegicus, UniProt P23977)
Chain of Sodium-dependent dopamine transporter (P23977 whole entry): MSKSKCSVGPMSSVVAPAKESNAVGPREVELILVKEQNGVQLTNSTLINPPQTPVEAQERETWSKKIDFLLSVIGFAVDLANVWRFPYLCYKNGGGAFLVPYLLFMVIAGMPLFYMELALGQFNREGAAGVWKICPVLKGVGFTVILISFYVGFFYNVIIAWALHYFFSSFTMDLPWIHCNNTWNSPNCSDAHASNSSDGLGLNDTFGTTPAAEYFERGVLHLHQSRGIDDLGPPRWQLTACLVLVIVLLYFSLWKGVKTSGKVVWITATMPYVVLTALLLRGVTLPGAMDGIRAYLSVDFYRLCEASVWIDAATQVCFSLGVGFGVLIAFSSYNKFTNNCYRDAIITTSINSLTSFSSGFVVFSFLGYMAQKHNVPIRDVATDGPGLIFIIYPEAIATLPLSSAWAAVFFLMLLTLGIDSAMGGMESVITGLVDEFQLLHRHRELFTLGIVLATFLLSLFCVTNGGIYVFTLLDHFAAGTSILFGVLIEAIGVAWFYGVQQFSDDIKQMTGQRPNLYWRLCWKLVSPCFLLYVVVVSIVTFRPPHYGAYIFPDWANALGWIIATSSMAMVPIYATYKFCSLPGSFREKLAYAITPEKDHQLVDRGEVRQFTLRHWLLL

Chain of Sodium-dependent serotonin transporter (P31652 whole entry): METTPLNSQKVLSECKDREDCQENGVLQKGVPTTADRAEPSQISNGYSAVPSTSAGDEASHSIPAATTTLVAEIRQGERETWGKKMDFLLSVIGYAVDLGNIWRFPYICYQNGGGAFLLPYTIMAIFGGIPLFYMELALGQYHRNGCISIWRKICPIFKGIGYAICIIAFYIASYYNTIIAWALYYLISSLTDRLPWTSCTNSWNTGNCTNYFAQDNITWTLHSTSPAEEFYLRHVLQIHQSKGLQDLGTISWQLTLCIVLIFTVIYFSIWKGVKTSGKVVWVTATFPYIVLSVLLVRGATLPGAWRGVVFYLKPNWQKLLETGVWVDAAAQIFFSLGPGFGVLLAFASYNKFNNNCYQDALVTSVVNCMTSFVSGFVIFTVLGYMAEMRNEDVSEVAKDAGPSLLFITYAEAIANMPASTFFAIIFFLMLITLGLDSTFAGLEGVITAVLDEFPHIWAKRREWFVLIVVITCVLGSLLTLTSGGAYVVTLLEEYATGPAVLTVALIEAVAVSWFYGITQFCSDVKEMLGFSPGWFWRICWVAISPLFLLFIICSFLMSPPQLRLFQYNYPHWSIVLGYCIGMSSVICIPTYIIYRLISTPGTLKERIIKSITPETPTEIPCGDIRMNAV

## CN1CCC(c2ccc(Cl)cc2)[C@H](C(=O)O)C1 (stereo not given in full) [CAS_8268]
[1]
  pKi: 7.05
[2]
  pKi: 5.23
[3]
  pKi: 6.56

## CN1CCC(c2ccc(Cl)cc2)[C@@H](C(=O)O)C1 (stereo partly drawn) [cis-CPCA, -]
[1]
  pKi: 7.01
[3]
  pKi: 7.17
